These results are taken from patent US10738031B2, “N-[(heteroaryloxy)propanyl]heteroaryl carboxamides as antagonists of orexin subtype 1 receptor activity” (Boehringer Ingelheim International GmbH, priority 2016, dated 2020).

A word on the half-life: it is the time needed for the level to fall by half in the phase considered. A higher half-life goes with slow decline.

For one data set, the target named is T1, human Orexin 1 receptor (Homo sapiens, UniProt O43613).
T1 construct: stably expressing the full-length human Orexin 1 receptor; expressed in transfected cells; host or cells: CHO-K1 (CHO-K1/hOX1), co-expressing aequorin
T1 sequence (O43613 1-425): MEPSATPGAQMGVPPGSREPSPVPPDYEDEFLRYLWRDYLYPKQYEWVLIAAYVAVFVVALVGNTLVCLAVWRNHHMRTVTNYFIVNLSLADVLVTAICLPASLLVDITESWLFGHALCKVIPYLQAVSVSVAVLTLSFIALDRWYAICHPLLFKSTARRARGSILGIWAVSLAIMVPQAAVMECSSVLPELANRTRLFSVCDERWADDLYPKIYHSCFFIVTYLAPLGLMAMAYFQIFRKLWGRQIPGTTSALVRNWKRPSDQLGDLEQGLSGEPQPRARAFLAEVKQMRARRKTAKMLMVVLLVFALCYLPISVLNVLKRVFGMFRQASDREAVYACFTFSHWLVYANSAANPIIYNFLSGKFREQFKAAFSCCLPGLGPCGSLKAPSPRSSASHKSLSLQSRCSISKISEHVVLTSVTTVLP
As to the kind of experiment: Assay A: OX1R IP1 (in vitro OX1R potency). It counts as cell-based. To be noted: for Kb: Table 3.

A further data set has as its target T2, human orexin 2 receptor (Homo sapiens, UniProt O43614).
T2 construct: stably expressing the full-length human orexin 2 receptor; expressed in transfected cells; host or cells: CHO-K1 (CHO-K1/hOX2), co-expressing aequorin
T2 sequence (O43614 1-444): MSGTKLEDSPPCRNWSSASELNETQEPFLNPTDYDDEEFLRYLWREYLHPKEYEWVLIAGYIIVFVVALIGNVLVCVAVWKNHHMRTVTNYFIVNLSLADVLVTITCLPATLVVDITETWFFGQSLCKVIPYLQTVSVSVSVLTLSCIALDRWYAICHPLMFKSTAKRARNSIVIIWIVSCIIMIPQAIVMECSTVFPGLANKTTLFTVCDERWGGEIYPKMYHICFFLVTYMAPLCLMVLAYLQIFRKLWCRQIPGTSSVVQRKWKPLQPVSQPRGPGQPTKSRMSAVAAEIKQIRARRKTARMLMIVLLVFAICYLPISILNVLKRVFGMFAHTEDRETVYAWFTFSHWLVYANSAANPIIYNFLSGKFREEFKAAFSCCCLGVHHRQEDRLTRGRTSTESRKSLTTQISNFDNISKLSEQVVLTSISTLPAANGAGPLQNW
Put plainly: Assay B: OX2R IP1 (in vitro OX2R potency). It counts as cell-based. To be noted: Table 3; 0.5 nM Orexin A concentration. The source says:
Activation of the orexin receptors expressed in cell lines results in an increase in intracellular IP3 concentration. IP1, a downstream metabolite of IP3, accumulates in cells following receptor activation and is stable in the presence of LiCl. Using Homogeneous Time-Resolved Fluorescence technology with Lumi4-Tb cryptate (commercially available from Cisbio Bioassay.) and a suitable fluorescence plate reader. This functional response is detectable and quantifiable as described in Trinquet et al. Anal. […] Curr. Chem. Genomics 2009, 3, 22-32. This technique is used to characterize pharmacological modification of the orexin receptors. B. In Vitro Testing of OX2R Potency: OX2R IP1 IP1 measurements are performed in CHO-K1 cells stably expressing the full-length human orexin 2 receptor and the aequorin photoprotein. Cells are cultivated in Ham's nutrient mixture F12 medium with 10% fetal calf serum, in a 37° C., 95% humidity and 5% CO2 incubator. The CHO-K1/hOX2 cell mass is expanded to larger cell numbers. The cells are obtained as frozen cells in cryo-vials and stored until use at -150° C. The viability of the cells after thawing is >90%. In preparation for the assay, 24 hours before the assay, the cells are thawed at 37° C. and immediately diluted with cell culture medium. After centrifugation, the cell pellet is resuspended in medium and then distributed into the assay plates with a density of 5000 cells/25 μL per well. The plates are incubated for one hour at room temperature to reduce edge effects before they are incubated for 24 hours at 37° C./5% CO2. […] On the day of the assay, cells in the plate are washed twice with 60 μL assay buffer (20 μL buffer remained in the wells after washing), followed by adding 5 μL per well of compounds diluted in assay buffer. […] The assay plate is incubated for 60 minutes at 37° C. Then 5 μL per well of Anti-IP1-Cryptate Tb solution and 5 μL per well of IP1-d2 dilution are added to all well of the plate and the plate is incubated for a further 60 minutes light protected at room temperature. […] The ratio between the emission at 665 nm and 615 is calculated by the reader. […] AssayExplorer (Accelrys). In order to establish an agonist concentration independent parameter, Kb values are calculated using the following equation: […] Sci. 1993, 14(4), 110-112).

Data set [1] can be described thus: Assay C: Human MST t1/2 (stability in human liver microsomes). It is filed as in vitro ADME. The settings on record: for half-life: human liver microsomes. In general terms: Microsomes from liver hold many membrane-bound enzymes, among them those of drug oxidation.

Turning to `CCN(C(=O)c1ncc(F)cc1-c1ccn(C)n1)[C@@H](C)COc1ccc(C(F)(F)F)cn1` [Example 37], the “OX2R Kb/OX1R Kb” value on human Orexin 1 receptor is on record as 243. In addition, the Kb at human Orexin 1 receptor (Orexin A concentration 0.5 nM) is 3.3 nM; at human orexin 2 receptor it was 802 nM. The same molecule showed a half-life in data set [1] of 24 min.

As for `CCN(C(=O)c1cc(OC)ncc1-c1ccn(C)n1)[C@@H](C)COc1ccc(C(F)(F)F)cn1` [Example 38], the “OX2R Kb/OX1R Kb” value at human Orexin 1 receptor turned out to be 135. In addition, the Kb at human Orexin 1 receptor (Orexin A concentration 0.5 nM) stood at 2.4 nM; on human orexin 2 receptor, 323 nM. In data set [1], this molecule registered a half-life of 12 min.

As to `CCN(C(=O)c1ccncc1-n1cccn1)[C@@H](C)COc1ccc(C(F)(F)F)cn1` [Example 40], the “OX2R Kb/OX1R Kb” value on human Orexin 1 receptor was found to be 120. For the same molecule, the Kb came out at 13 nM at human Orexin 1 receptor (Orexin A concentration 0.5 nM) and 1560 nM at human orexin 2 receptor. Besides, the half-life in data set [1] is 10 min.

For the molecule `CCN(C(=O)c1cnccc1-n1nccn1)[C@@H](C)COc1ncc(C(F)(F)F)cc1F` [Example 42], at human Orexin 1 receptor, the “OX2R Kb/OX1R Kb” value is 210. In addition, the figures for the Kb on human Orexin 1 receptor (Orexin A concentration 0.5 nM) and at human orexin 2 receptor were 2.3 nM and 483 nM, respectively. This molecule showed a half-life in data set [1] of 13 min.

As for `CCN(C(=O)c1cc(OC)cnc1-n1nccn1)[C@@H](C)COc1ccc(Cl)cn1` [Example 43], the “OX2R Kb/OX1R Kb” value on human Orexin 1 receptor stood at 171. For the same molecule, the Kb came to 1.9 nM at human Orexin 1 receptor (Orexin A concentration 0.5 nM) and 325 nM at human orexin 2 receptor. The half-life in data set [1] was found to be 110 min.

As to `CCN(C(=O)c1cccnc1-n1nccn1)[C@@H](C)COc1ncc(C(F)(F)F)cc1F` [Example 44], the “OX2R Kb/OX1R Kb” value at human Orexin 1 receptor was 289. The Kb was 4.2 nM at human Orexin 1 receptor (Orexin A concentration 0.5 nM) and 1210 nM at human orexin 2 receptor. This molecule also gave a half-life in data set [1] of over 130 min.

For `CCN(C(=O)c1cc(F)cnc1-c1ncccn1)[C@@H](C)COc1cnc(C(F)(F)F)cn1` [Example 45], the “OX2R Kb/OX1R Kb” value at human Orexin 1 receptor was 332. The Kb at human Orexin 1 receptor (Orexin A concentration 0.5 nM) was 20 nM; on human orexin 2 receptor, 6650 nM. This molecule also displayed a half-life in data set [1] of over 130 min.

Regarding `CCN(C(=O)c1cnccc1-n1nccn1)[C@@H](C)COc1ccc(Cl)cn1` [Example 48], the “OX2R Kb/OX1R Kb” value on human Orexin 1 receptor amounted to 147. In addition, the Kb at human Orexin 1 receptor (Orexin A concentration 0.5 nM) came to 2.6 nM; at human orexin 2 receptor, 381 nM. Besides, the half-life in data set [1] turned out to be 33 min.

As for `CCN(C(=O)c1nccc(C(F)(F)F)c1-c1ccn(C)n1)[C@@H](C)COc1ccc(C(F)(F)F)cn1` [Example 50], the “OX2R Kb/OX1R Kb” value at human Orexin 1 receptor was found to be 236. For the same molecule, the Kb was 0.11 nM on human Orexin 1 receptor (Orexin A concentration 50 nM) and 26 nM at human orexin 2 receptor. This molecule registered a half-life in data set [1] of 23 min.

For the molecule `CCN(C(=O)c1cccnc1-n1nccn1)[C@@H](C)COc1ccc(Cl)cn1` [Example 51], the “OX2R Kb/OX1R Kb” value at human Orexin 1 receptor stood at 138. Moreover, the results for the Kb at human Orexin 1 receptor (Orexin A concentration 0.5 nM) and on human orexin 2 receptor were 8.3 nM and 1140 nM, respectively. Further, the half-life in data set [1] was over 130 min.

As to `CCN(C(=O)c1nc(C)ccc1-c1ncccn1)[C@@H](C)COc1cnc(C(F)(F)F)cn1` [Example 53], the “OX2R Kb/OX1R Kb” value at human Orexin 1 receptor is listed as 105. Moreover, the Kb on human Orexin 1 receptor (Orexin A concentration 0.5 nM) came out at 3.2 nM; at human orexin 2 receptor it was 337 nM. For the same molecule, in data set [1] (compared with closest prior art compounds in WO2016/034882), the “stability in human liver microsomes (in words)” value is on record as “markedly improved stability in human liver microsomes”. The half-life in data set [1] was over 130 min.

Regarding `CCN(C(=O)c1cc(OC)cnc1-n1nccn1)[C@@H](C)COc1ncc(C(F)(F)F)cc1F` [Example 54], on human Orexin 1 receptor, the “OX2R Kb/OX1R Kb” value stood at 649. The Kb was 0.89 nM at human Orexin 1 receptor (Orexin A concentration 0.5 nM) and 578 nM at human orexin 2 receptor. The half-life in data set [1] was over 130 min.

On to `CCN(C(=O)c1cc(OC)cnc1-n1nccn1)[C@@H](C)COc1ccc(C(F)(F)F)cn1` [Example 56], for which the Kb on human Orexin 1 receptor (Orexin A concentration 0.5 nM) is 0.5 nM; on human Orexin 1 receptor (Orexin A concentration 50 nM), 0.49 nM; at human orexin 2 receptor, 260 nM. Further, in data set [1], the half-life was over 130 min.

Consider `CCN(C(=O)c1ncccc1-n1nccn1)[C@@H](C)COc1ncc(C(F)(F)F)cc1F` [Example 57], for which the “OX2R Kb/OX1R Kb” value on human Orexin 1 receptor is 233. The values for the Kb at human Orexin 1 receptor (Orexin A concentration 0.5 nM) and at human orexin 2 receptor were 1.8 nM and 419 nM, respectively. The molecule further displayed a half-life in data set [1] of 56 min.

In the case of `CCN(C(=O)c1c(F)ccnc1-c1ccn(C)n1)[C@@H](C)COc1ccc(C(F)(F)F)cn1` [Example 58], on human Orexin 1 receptor, the “OX2R Kb/OX1R Kb” value turned out to be 93. Also, the Kb at human Orexin 1 receptor (Orexin A concentration 0.5 nM) stood at 3.5 nM; on human orexin 2 receptor it was 327 nM. This molecule came in with a half-life in data set [1] of 41 min.
